Data reported in paper PMC5552358, “Imidazoquinoxaline anticancer derivatives and imiquimod interact with tubulin: Characterization of molecular microtubule inhibiting mechanisms in correlation with cytotoxicity” (PLoS ONE, 2017).

Key:
TLR7 [1] = target: T1, TLR7 (Mus musculus, UniProt P58681); assay: NF-kB reporter HEK293 cells expressing murine TLR7 (agonism; lowest active concentration); format: cell-based
T1 construct: HEK-Blue-mTLR7 reporter cells
T1 sequence (P58681 27-1050): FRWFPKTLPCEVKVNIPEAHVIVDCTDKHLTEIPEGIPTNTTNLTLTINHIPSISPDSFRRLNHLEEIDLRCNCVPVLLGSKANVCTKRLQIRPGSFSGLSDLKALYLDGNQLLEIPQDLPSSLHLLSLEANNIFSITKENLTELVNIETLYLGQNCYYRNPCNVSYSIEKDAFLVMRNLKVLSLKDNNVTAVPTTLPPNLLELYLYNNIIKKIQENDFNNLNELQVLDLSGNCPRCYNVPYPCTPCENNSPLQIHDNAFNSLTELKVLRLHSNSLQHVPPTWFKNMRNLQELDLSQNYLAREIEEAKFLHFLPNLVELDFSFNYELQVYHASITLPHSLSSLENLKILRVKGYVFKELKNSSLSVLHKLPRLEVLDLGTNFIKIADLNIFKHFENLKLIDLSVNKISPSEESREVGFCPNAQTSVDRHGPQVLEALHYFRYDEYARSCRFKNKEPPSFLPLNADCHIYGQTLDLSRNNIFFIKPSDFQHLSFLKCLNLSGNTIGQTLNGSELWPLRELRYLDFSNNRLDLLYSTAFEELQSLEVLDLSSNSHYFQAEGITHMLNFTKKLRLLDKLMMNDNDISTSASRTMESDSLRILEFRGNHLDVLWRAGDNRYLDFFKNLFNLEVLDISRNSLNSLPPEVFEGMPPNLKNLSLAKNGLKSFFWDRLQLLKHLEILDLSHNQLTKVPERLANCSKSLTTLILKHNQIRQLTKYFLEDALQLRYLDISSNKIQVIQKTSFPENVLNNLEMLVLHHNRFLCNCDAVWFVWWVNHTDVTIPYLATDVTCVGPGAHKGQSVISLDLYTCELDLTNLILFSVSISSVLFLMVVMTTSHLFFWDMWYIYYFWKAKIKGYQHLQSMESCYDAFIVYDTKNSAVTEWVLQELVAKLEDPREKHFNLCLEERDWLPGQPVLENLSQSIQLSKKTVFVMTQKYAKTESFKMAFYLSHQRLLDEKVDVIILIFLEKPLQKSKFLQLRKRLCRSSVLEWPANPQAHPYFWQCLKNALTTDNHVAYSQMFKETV

TLR7 [2] = target: T2, TLR7 (Homo sapiens, UniProt Q9NYK1); assay: NF-kB reporter HEK293 cells expressing human TLR7 (agonism; lowest active concentration); format: cell-based
T2 construct: HEK-Blue-hTLR7 reporter cells
T2 sequence (Q9NYK1 27-1049): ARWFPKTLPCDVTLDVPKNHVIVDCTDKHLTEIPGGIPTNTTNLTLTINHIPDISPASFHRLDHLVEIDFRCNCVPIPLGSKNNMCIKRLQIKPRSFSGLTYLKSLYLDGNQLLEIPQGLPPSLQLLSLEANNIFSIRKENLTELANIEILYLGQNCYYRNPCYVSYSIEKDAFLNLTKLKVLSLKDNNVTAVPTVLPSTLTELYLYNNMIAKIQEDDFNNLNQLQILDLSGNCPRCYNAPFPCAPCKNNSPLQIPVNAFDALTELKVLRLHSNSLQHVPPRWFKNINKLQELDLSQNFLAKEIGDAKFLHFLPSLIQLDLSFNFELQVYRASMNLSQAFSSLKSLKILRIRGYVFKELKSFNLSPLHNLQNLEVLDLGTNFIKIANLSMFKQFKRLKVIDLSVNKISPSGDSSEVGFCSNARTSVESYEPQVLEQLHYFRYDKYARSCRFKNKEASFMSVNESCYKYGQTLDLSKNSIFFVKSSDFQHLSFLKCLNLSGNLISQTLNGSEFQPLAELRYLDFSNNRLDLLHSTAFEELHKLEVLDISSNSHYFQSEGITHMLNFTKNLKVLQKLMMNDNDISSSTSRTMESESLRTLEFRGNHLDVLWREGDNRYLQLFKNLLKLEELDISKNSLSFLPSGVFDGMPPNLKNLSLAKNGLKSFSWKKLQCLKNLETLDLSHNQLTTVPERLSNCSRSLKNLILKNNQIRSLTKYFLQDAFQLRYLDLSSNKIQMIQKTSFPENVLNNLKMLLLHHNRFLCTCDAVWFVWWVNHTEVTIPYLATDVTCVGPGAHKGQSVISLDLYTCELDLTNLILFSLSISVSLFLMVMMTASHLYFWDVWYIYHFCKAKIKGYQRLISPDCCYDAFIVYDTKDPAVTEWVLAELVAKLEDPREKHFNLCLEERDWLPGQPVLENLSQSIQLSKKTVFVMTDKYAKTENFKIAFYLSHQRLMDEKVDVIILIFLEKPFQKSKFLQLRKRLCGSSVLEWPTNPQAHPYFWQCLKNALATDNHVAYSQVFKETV

**Q.** What does the source list for `CC(C)Cn1cnc2c(N)nc3ccccc3c21` [imiquimod]?
**A.** NF-kB reporter HEK293 cells expressing murine TLR7 (agonism); lowest active conce (TLR7 [1]): 4.16 µM; NF-kB reporter HEK293 cells expressing human TLR7 (agonism); lowest active concen (TLR7 [2]): 4.16 µM
